Data: ChEMBL document CHEMBL1201862, “PubChem BioAssay data set” (2004)
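Dose response: 5 concentrations. Exposure: 48 h. Format: 96-well plates. Endpoint: linear interpolation; highest concentration if not reached. At the GI50, growth is halved.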 The source made the active and inactive calls. Cut-off read from the data, not from the text of the source: active = GI50 up to about 1.1 µM and inactive = higher.

How the values were obtained:
Assay in all cases: growth of human tumour cells (NCI), 48 h
[1] = tested on: SF-539
[2] = tested on: SK-MEL-2
[3] = tested on: OVCAR-4
[4] = tested on: COLO 205
[5] = tested on: SNB-75
[6] = tested on: DMS-114
[7] = tested on: K562
[8] = tested on: RPMI-8226
[9] = tested on: A498
[10] = tested on: KM12
[11] = tested on: UO-31
[12] = tested on: NCI-H226
[13] = tested on: A549
[14] = tested on: LOX IMVI
[15] = tested on: SW-620
[16] = tested on: OVCAR-3
[17] = tested on: HCT-116
[18] = tested on: OVCAR-5

Measured: GI50

Cn1cc(C(=O)NCCC(=N)N)cc1NC(=O)C1=[N+](C)C=C(NC(=O)c2cccc(C(=O)NC3=CC(C(=O)Nc4cc(C(=O)NCCC(=N)N)cn4C)=[N+](C)C3)c2)C1
inactive: [1] 41.2 µM | [2] > 100 µM | [3] > 100 µM | [4] 50.7 µM | [5] > 100 µM | [6] 70.6 µM | [7] 83.8 µM | [8] > 100 µM | [9] > 100 µM | [10] 36.3 µM | [11] > 100 µM | [12] > 100 µM | [13] > 100 µM | [14] > 100 µM | [15] > 100 µM | [16] > 100 µM

N/N=C1\C(=O)N(c2ccc(Cl)c(Cl)c2)C(=O)C1C(=O)Nc1ccc(Cl)c(Cl)c1 (configuration not stated)
inactive: [1] 79.6 µM | [17] 75.2 µM | [18] 88.7 µM | [2] 50.4 µM | [3] 80.4 µM | [5] > 100 µM | [6] 57.5 µM | [7] 34.8 µM | [8] > 100 µM | [9] 44.3 µM | [10] 50.7 µM | [11] 19.8 µM | [13] 42.9 µM | [15] 91.4 µM | [16] 49.9 µM

CC(=O)OC1(C#N)CC2OC1C1C2N1C(=O)c1ccccc1 (configuration not stated)
inactive: [1] > 100 µM | [17] > 100 µM | [18] > 100 µM | [2] > 100 µM | [3] > 100 µM | [4] > 100 µM | [5] > 100 µM | [6] > 100 µM | [7] > 100 µM | [8] > 100 µM | [9] > 100 µM | [11] > 100 µM | [12] > 100 µM | [13] > 100 µM | [14] > 100 µM | [15] > 100 µM

CC(=O)OC1COC(N2CCc3cc([N+](=O)[O-])ccc32)C(OC(C)=O)C1OC(C)=O (configuration not stated)
inactive: [1] > 100 µM | [2] > 100 µM | [3] > 100 µM | [4] > 100 µM | [5] > 100 µM | [6] > 100 µM | [7] > 100 µM | [8] > 100 µM | [9] 7.23 µM | [10] > 100 µM | [11] > 100 µM | [12] 63.7 µM | [13] > 100 µM | [14] > 100 µM | [15] > 100 µM | [16] > 100 µM

COC(=O)c1ccc(N/C=C(/C#N)c2ccsc2)cc1
inactive: [1] 15.9 µM | [17] 8.57 µM | [18] > 100 µM | [2] 22.2 µM | [4] 67.1 µM | [5] 6.68 µM | [6] 15 µM | [7] > 100 µM | [8] 20.7 µM | [9] 4.06 µM | [10] 12.9 µM | [11] 14.4 µM | [12] 20.7 µM | [13] 15.4 µM | [15] 21.3 µM | [16] 9.66 µM

O=C1NC(=S)NC(=O)C1=Cc1cc2c(cc1[N+](=O)[O-])OCO2
inactive: [1] 83.2 µM | [17] 54.1 µM | [2] > 100 µM | [3] > 100 µM | [4] > 100 µM | [5] > 100 µM | [6] 36.8 µM | [7] 41.8 µM | [8] 42.2 µM | [9] > 100 µM | [10] 40.6 µM | [11] > 100 µM | [12] > 100 µM | [13] > 100 µM | [15] 39.1 µM | [16] > 100 µM

O=C1C(c2ccc(Br)cc2)=[N+]([O-])c2ccccc21
inactive: [1] 20.5 µM | [17] 14.4 µM | [18] 20.8 µM | [2] 11.7 µM | [4] 16.3 µM | [5] 16.6 µM | [6] 3.94 µM | [7] 10.2 µM | [8] 3.88 µM | [9] 22.1 µM | [10] 14.8 µM | [11] 14.3 µM | [12] 13.1 µM | [13] 20.9 µM | [14] 8.75 µM | [15] 26.1 µM | [16] 14.9 µM

O=C1CCC(=O)N1Sc1ccccc1
inactive: [1] > 100 µM | [17] > 100 µM | [2] > 100 µM | [3] > 100 µM | [4] > 100 µM | [5] 72.9 µM | [6] > 100 µM | [7] > 100 µM | [8] > 100 µM | [9] > 100 µM | [10] > 100 µM | [11] > 100 µM | [13] > 100 µM | [14] > 100 µM | [15] > 100 µM | [16] > 100 µM

CC(=O)/C=C1/c2ccccc2N(C(C)=O)C1O (configuration not stated)
inactive: [1] > 100 µM | [17] > 100 µM | [2] > 100 µM | [3] > 100 µM | [4] > 100 µM | [5] > 100 µM | [6] > 100 µM | [7] > 100 µM | [8] > 100 µM | [9] > 100 µM | [10] > 100 µM | [11] > 100 µM | [13] > 100 µM | [15] > 100 µM | [16] > 100 µM

CC(C)c1cccc(C(C)C)c1NC(=O)C(=O)CC(=O)CC(c1ccccc1)c1c(O)oc2ccccc2c1=O (configuration not stated)
inactive: [1] > 100 µM | [17] > 100 µM | [18] > 100 µM | [2] > 100 µM | [3] > 100 µM | [4] > 100 µM | [6] > 100 µM | [7] > 100 µM | [8] > 100 µM | [9] > 100 µM | [10] > 100 µM | [11] > 100 µM | [13] > 100 µM | [15] > 100 µM | [16] > 100 µM

O=c1nc2occc2cn1C1CC(O)C(CO)O1 (configuration not stated)
inactive: [1] > 100 µM | [17] > 100 µM | [18] > 100 µM | [3] > 100 µM | [4] > 100 µM | [5] > 100 µM | [6] > 100 µM | [7] > 100 µM | [8] > 100 µM | [9] > 100 µM | [10] > 100 µM | [11] > 100 µM | [12] > 100 µM | [13] > 100 µM | [14] > 100 µM | [15] > 100 µM | [16] > 100 µM

COc1ccc(C2=C(Cl)c3cc(OC)c(OC)cc3C2OC)cc1OC (configuration not stated)
inactive: [1] 65.2 µM | [17] 95.7 µM | [18] > 100 µM | [2] > 100 µM | [3] > 100 µM | [4] 26.9 µM | [5] > 100 µM | [6] 14.2 µM | [7] 5.74 µM | [8] 23.8 µM | [9] > 100 µM | [10] > 100 µM | [11] > 100 µM | [12] > 100 µM | [13] > 100 µM | [14] 50.2 µM | [15] 19.5 µM
